row,SMILES,melting point [°C]
1,O=C(CN1C(=O)C2(COc3cc(F)c(F)cc32)c2ccccc21)Nc1ccccc1F (stereo unspecified),97 to 100
2,Cc1nn(-c2cc(N)c(Cl)cc2F)c(Cl)c1Br,113 to 116
3,C=C[Si](C)(c1ccccc1)c1cccc(Cl)c1C(=O)NCC (stereo unspecified),85 to 87
4,CCN1CCN2C(=O)c3ccccc3C12c1ccccc1 (stereo unspecified),122 to 124
5,CC(=O)N1CCN(c2ccc(Nc3nccc(-c4sc(N(C)c5cccnc5)nc4C)n3)cc2)CC1,205 to 206
6,COc1ccc(-c2nc(C3=NNC(=O)CC3)sc2-c2ccc(OC)cc2)cc1,242 to 247
7,O[C@H]1CCCN[C@H]1c1ccccc1 (relative stereo),93 to 95
8,Nc1ccc(CCNC(=O)Nc2ccc(Nc3ccccc3)cc2)cc1,> 260
9,NC(=O)c1cn(CCBr)nc1[N+](=O)[O-],135 to 137
10,Cc1cncc(-c2cncc(OC3SCC(O)C(O)C3O)c2)c1 (stereo unspecified),119 to 120
11,CC(C)N(CCC(CCN(C(C)C)C(C)C)(C(N)=O)c1ccccc1C(F)(F)F)C(C)C,131 to 132
12,"CC(=O)SCC(Cc1ccccc1)NC(=O)N1CCN(C)CC1 (single isomer, unassigned; (+))",78
13,COc1c2c(c(OC)c(OC)c1OC)CC(CCCCCCCCOc1ccc(Cl)cc1)C2,38 to 42
14,C#Cc1ccnc(-c2ccc(-c3ccccc3C#C)c([N+](=O)[O-])c2)c1,144 to 146
15,Cc1cccc2c(=O)[nH]c(N3CCN(C)CC3)cc12,186 to 188
16,Cc1ccc(S(=O)(=O)c2ccccc2)nc1,117 to 118
17,COc1cc(OC)cc(C(=O)NCC23CC4CC(CC(C4)C2)C3)c1,130 to 133
18,COc1ccc2c(c1)C1(CCN(CCCC(=O)c3ccc(F)cc3)C1)CC2O (stereo unspecified),163 to 165
19,Cc1c(NC(=O)c2ccc(-c3ccc(F)cc3F)cc2)ccc2cc(CN3CCCC3)cnc12,177 to 179
20,CNC(=O)c1ccc(C(=O)Nc2cccc(C3=NC(C)(C)Cc4cc(OC)c5c(c43)CC(C)(C)O5)c2)cc1,310 to 312
21,CC1(c2ccccc2)CC(=O)N(c2ccncc2)C1=O (stereo unspecified),90 to 92
22,CS(=O)(=O)c1ccc(C2=C(c3ccccc3)C(=O)C2(Cl)Cl)cc1,124 to 125
23,O=C(Cc1cccc(OC(F)(F)F)c1)NCc1cccc2c1C(=O)N(C1CCC(=O)NC1=O)C2=O (stereo unspecified),178 to 180

row,SMILES,melting point [°C]
1,O=C(O)Cc1ccccc1CC(=O)Nc1cccc(/C=C/c2nc(C3CCC3)cs2)c1,160 to 162
2,CNC(=O)c1cc(Cl)cc(C)c1NC(=O)c1cc(Br)nn1-c1ncccc1Cl,162 to 164
3,COc1ccc(-c2cc(=O)n(CCc3ccc(Cl)cc3Cl)nc2-c2ccc(OC)cc2)cc1,119 to 120
4,CC(O)C(C)Sc1cc(C(C)(C)C)c(O)c(C(C)(C)C)c1 (stereo unspecified),73
5,CCN(CC)OCc1cc(C(C)(C)C)c(O)c(C(C)(C)C)c1,129 to 137
6,Nc1sc2c(c1C(=O)c1ccc(Cl)cc1)CCNC2,164 to 166
7,c1cc2c(cc(-c3nnn[nH]3)c3nnnn32)s1,267 to 269
8,O=C(c1ccccc1Cl)c1ccccc1C#CCN1C(=O)c2ccccc2C1=O,149 to 150
9,O=Cc1cc(O)c(O)c([N+](=O)[O-])c1,142 to 143
10,COc1ccccc1C1(O)C(O)CCC2CN(Cc3ccccc3)CC21 (stereo unspecified),140
11,Cn1cnnc1C(O)(c1ccc(Cl)cc1)c1cc2c3c(c1)c(-c1cccc(Cl)c1)cc(=O)n3CCC2 (stereo unspecified),183
12,COc1ccc(C2=NN(C3CCN(c4ncnc5sccc45)CC3)C(=O)[C@@H]3CC=CC[C@H]23)cc1OC,219 to 220
13,O=[N+]([O-])c1ccc([N+](=O)[O-])c(OCC=CCBr)c1,81 to 83
14,O=C(/C=C1/c2ccccc2N(C(=O)c2ccc(NC(=O)c3ccccc3-c3ccccc3)cc2)CCC1(F)F)NCc1ccccc1,189 to 192
15,CCCCCCCCCCCCCCCCCCOc1cc(OCCCCC(=O)OC)cc(N(CC(=O)O)CC(=O)O)c1,91 to 94
16,Cc1cc(Nc2ccnc(Nc3ccc(S(=O)(=O)N(C)C4CCN(Cc5cn[nH]c5)CC4)cc3)n2)ccc1F,224
17,CC(C)(C)OC(=O)[C@H]1CCCN1S(=O)(=O)c1ccc2c(Br)cnc(Cl)c2c1,128 to 130
18,Cc1ccc(S(=O)(=O)N[C@@H](C)C(=O)N[C@@H](Cc2ccccc2)C(=O)O)cc1,105 to 108
19,[N-]=[N+]=NCc1ccc(Sc2ccc(Cl)cc2)c(Cl)c1,39 to 41
20,CNCC1CCN(c2ccc(Cl)cc2NC(=O)c2csc3cncnc23)CC1,190 to 193
21,CCc1noc(-c2ncn3c2c(=O)n(CC)c2ncccc23)n1,221
22,Nc1ncnc2c1c(-c1ccccc1)cn2-c1cccc(OCCCl)c1,166 to 168
23,O=C(O)C1Oc2ccc3ccccc3c2C=C1C(F)(F)F (stereo unspecified),245 to 250

row,SMILES,melting point [°C]
1,Cc1ccc(Cc2cnc(NCCCNc3ncccc3C)[nH]c2=O)cn1,119 to 123
2,CC(C)c1ccc(S(=O)(=O)n2c(Cc3ccc(C(=O)O)cc3)cc3cc(C(F)(F)F)ccc32)cc1,227
3,CNc1nc(NCc2ccc(NC(=O)c3ccc(F)cc3)cc2)c2c(C)cccc2n1,228 to 230
4,CC(=O)Oc1cc(C)cc2c1C1=C(CCC(C)C1)C(C)(C)O2 (stereo unspecified),115 to 119
5,CC(C)(C)OC(=O)Nc1cn(-c2cccnc2)nc1Br,109 to 112
6,O=C(Nc1ccc(CN2C(=O)C=C(CCO)Sc3ccccc32)cc1)c1ccccc1-c1ccccc1,116 to 120
7,OC1CSC(Oc2cccc3conc23)C(O)C1O (stereo unspecified),115
8,Clc1ccc(Nc2nc(-c3cccc(Br)n3)nc3ccccc23)cc1,242 to 248
9,COc1ccc(N2C(=O)CC(Cl)C2=O)cc1 (stereo unspecified),142 to 143
10,CCCCCCCCCCCCCCn1nnc(NC(=O)Nc2c(C(C)C)cccc2C(C)C)n1,112 to 114
11,COc1cccc2c1OC(CO)CN2 (stereo unspecified),108 to 110
12,CC(=O)OCC(OC(C)=O)C(OC(C)=O)C(OC(C)=O)C(C=O)OC(C)=O (stereo unspecified),112 to 114
13,CN1CCc2cc(NC(=O)/C=C/c3ccc(C(C)(C)C)cc3)ccc21,194
14,CN(C)CCCC(C#N)(c1ccc(Cl)cc1)c1ccc(-n2ncc(=O)[nH]c2=O)cc1Cl (stereo unspecified),140
15,CC12CCC(Oc3c(F)c(F)c(C(F)(F)F)c(F)c3F)=CC1=CCC1C2CCC2(C)C(c3cccnc3)=CCC12 (stereo unspecified),166
16,C=CC(=O)Oc1c(C(C)c2cc(C(C)(C)CC)cc(C(C)(C)CC)c2O)cc(C(C)(C)CC)cc1C(C)(C)CC (stereo unspecified),119 to 121
17,CC(C)(C)OC1CCC(C(=O)O)CC1 (stereo unspecified),100 to 105
18,Fc1cc(Br)c2ncccc2c1,75 to 78
19,O=C(O)c1ccc2cc(OCCC(c3ccccc3)(c3ccccc3)c3ccccc3)ccc2c1,243 to 244
20,O=[N+]([O-])c1cc2c(Nc3ccc(F)c(Cl)c3)ncnc2cc1OC1CCCC1,230
21,Fc1ccccc1-c1noc2c(Cl)c(OCCBr)ccc12,131 to 132

# Next, values leading:
row,melting point [°C],SMILES
1,196 to 197,CCN1C(=O)C(C(=O)Nc2ccc(F)cc2)c2cc3c(cc21)CC(C)O3 (stereo unspecified)
2,250,Cc1csc2nc(-c3ccc(C(=O)O)cc3)nc(Cc3ccc4c(c3)OCO4)c12
3,229 to 242,CSc1ccc2nc(N)c(C(N)=O)cc2c1
4,108 to 109,CC(=O)Oc1c(C)c(CCl)nc2ccccc12
5,65 to 67,CCCCc1c(C)cc(C)cc1O
6,169 to 170,Cc1c(CC(N)=O)c2cc(OCc3nc4ccccc4s3)ccc2n1Cc1ccc(Cl)cc1
7,248,CCn1c(N)c(-c2nccn2COCC[Si](C)(C)C)c(=O)c2ccc(-c3ccc(C(C)C(=O)O)cc3)nc21 (stereo unspecified)
8,123 to 124,CCOC(=O)c1cnc2ccc(Cl)cc2c1-c1ccccc1
9,222 to 224,CCn1cc(C(=O)O)c(=O)c2cc(F)c(N3C[C@@H](N)[C@@H](C)C3)c(Cl)c21 (relative stereo)
10,220 to 222,Cc1nc(NC(CO)C(C)SCc2ccccc2)c2nc(-c3ccccc3)cc-2[nH]1 (stereo unspecified)
11,152 to 153,CCOC(=O)Cc1oc(-n2cnc3ccccc32)nc1-c1ccc(Cl)cc1
12,196 to 197,CCOC(=O)c1cc2cc3[nH]c(=O)[nH]c3cc2[nH]1
13,167 to 169,CCOc1nn(CCOc2ccccc2CC(=O)O)cc1C(=O)NCc1ccc(Cl)cc1Cl
14,183 to 184,CCc1cn(C2CC(O)C(CNC(=O)C(C)S(=O)(=O)c3ccc(Cl)cc3Cl)O2)c(=O)[nH]c1=O (mixture of isomers)
15,200 to 202,O=C(NCc1ccc2cc(O)ccc2c1)c1cc2ccccc2o1
16,116 to 118,O=C(CCCl)c1cc2ccccc2o1
17,122 to 123,CC[C@H](COC)n1cc(Br)nc(N2CCc3cc(OC)cc(Br)c32)c1=O
18,148 to 149,CCCn1nc(C2CC2)c(C(=O)OCC)c1Cc1ccc(-c2ccccc2-c2nnn[nH]2)cc1
19,240 to 241,CC1CC(=O)NN=C1c1ccc(NC(=O)OCC2CC2)cc1 (stereo unspecified)
20,373 to 377,CCNC(=O)c1c[nH]c2ncc(-c3nn(C)c4cc(Cl)ccc34)nc12
21,145 to 146,C=CC(=O)c1c(-c2ccccc2)[nH]c2ccccc12
22,174,COC(=O)C1=C(C)NC(C)=C(C(=O)OC(C)C)C1c1ccccc1[N+](=O)[O-] (stereo unspecified)
23,150 to 151,O=C(O)c1cc2ccc(OCCc3ccccc3)cc2oc1=O
24,218 to 221,Cc1c(-c2ccncc2)[nH]c(-c2ccncc2)c1C(=O)OC(C)C
25,232,CCN(C(C)=O)c1ccc2c(c1)Cc1c-2[nH]c2ccccc12
26,288 to 290,Cc1[nH]c(=S)[nH]c1-c1cc(C(C)(C)C)c(O)c(C(C)(C)C)c1
27,125 to 126,CC(C)Cc1oc(-c2ccc(F)cc2)nc1CC(=O)O
28,103 to 105,CCNC(=O)n1nc(Oc2ccc(C#N)cc2C(F)(F)F)cc1C
29,127 to 131,CCOC(=O)C(C)c1ccc2c(c1)sc1nc(=O)cc(-c3ccccc3)n12 (stereo unspecified)

# From a melting point compilation (Tetko et al.; mined from patent text by program, amines drawn as free bases though some values may be those of a salt)
